Experimental data as given in patent publication US20210213010A1, “TLR7/8 AGONISTS AND LIPOSOME COMPOSITIONS” (Torque Therapeutics, Inc., priority 2018, published 2021).
Entries after “also recorded” stand apart in the source; their conditions may differ.

How the values were obtained:
[1] = Remote loading efficiency of small molecules into liposomes (PD-10 size exclusion, HPLC); format: physicochemical
Experimental: A solution of the small molecule (modified TLR agonist) was lyophilized in a vial equipped with a magnetic stir bar over night to form a fluffy white powder. This powder was added either formulation F1 or F2 to the wanted drug/lipid ratio. The resulting mixture was stirred at 55° C. or 41° C. for formulation F1 and F2 respectively for 3h, then allowed to cool to rt before the solutions were refrigerated and stored at 4° C.
Remote loading efficiency was determined at 1 h and 3 h by taking out 100 μL of the mixture and applying this and 900 μL buffer (25 mM HEPES, 10 vol % sucrose buffer, pH 7.4) to a PD-10 column size exclusion column. Following, 10×1 mL fractions were collected, and the small molecule compound concentrations in the loading mixture and in the liposome containing fractions were determined on analytical HPLC. Loading efficiency was calculated as percentage of molecules found in liposome containing fractions out of the applied amount. The general procedure for the small molecule remote loading is visualized in FIG. 3. The general concept of remote loading imidazoquinolines in liposomes that are dialyzed against HEPES is visualized in FIG. 4.

whole human blood [2] = test: IL-12p40 cytokine expression in stimulated whole human blood (ELISA); format: cell-based
Experimental: (§1) This example describes the general procedure used to assess the level of cytokine IL-6 and IL-12p40 expressions upon stimuli of whole human blood with small molecules or small molecules in liposomal formulations F1 and F2. 10 mM DMSO solutions of the small molecules were diluted in RPMI media (RPMI-1640, Sigma Aldrich) with 1% penicillin/streptomycin (p/s). […], of each dilution was transferred to Nunc™ 96-Well Polystyrene Conical Bottom MicroWell™ Plates in duplicates. Blood was drawn from two human donors, diluted in RPMI with 1% p/s and added to each well to reach final concentrations of 10 μM, 1 μM, and 0.1 μM of the small molecules. The plates were incubated at 37° C. in a cell incubator for 24h. The plates were then spun down in a plate centrifuge with 3200 revolutions per minute (rpm) for 10 min before 50 uL of the supernatant was transferred to new 96-well plates. The supernatant samples were subsequently stored at −80° C. until the day of cytokine measurements.
(§2) The level of cytokine expression was measured using either an IL-6 ELISA Kit (RnDSystems, cat #DY206) for IL-6, or an IL-12p40 ELISA Kit (RnDSystems, cat #DY1240) according to the manufacturer's protocols. This general procedure was used to generate the examples 24-33.

whole human blood [3] = test: IL-6 cytokine expression in stimulated whole human blood (ELISA); format: cell-based
Experimental: as §1, §2

RAW-Blue cells = test: NF-κB induction in RAW-Blue reporter cells (RAW 264.7 macrophages, SEAP); format: cell-based; conditions: for EC50: RAW-Blue, sigmoidal 4PL fitting, 24 h
Excerpt: This example describes the general procedure used to assess the compounds' potency to induce NF-κB expression in RAW 264.7 macrophages cells that stably express secreted embryonic alkaline phosphatase (SEAP) upon induction of NF-κB. RAW-Blue™ reporter cells are commonly used for quantifying TLR7/8 agonist potencies in reporter cell assays. Conversely, we used RAW-Blue™ cells to evaluate the potencies of the synthesized derivatives, as previously reported^1. ^1 Ryu et al, J. Am. Chem. Soc. (2014), 136, 10823-10825
RAW 264.7 assays were carried out using RAW-Blue™ cells and QUANTI-Blue™ detection solution (Invivogen, Toulouse, France, at. #raw-sp and rep-qbs respectively). The assays carried out according to the protocol from Invivogen. RAW 264.7 macrophages were cultured in DMEM high glucose (4.5 g/L) supplemented with 10% (v/v) FBS, 1% (v/v) P/S, and Normocin™ (100 μg/ml). On the day of the study, the cells were seeded in a 96-well plate (ThermoFisher Scientific, Roskilde, Denmark) with 20 μL TLR7/8 agonist solutions per well at varying concentrations by adding 180 μL cell suspension, made by suspending cells to 0.55×10^6 cells per mL in the prepared cell medium added Zeocin™ (200 μg/ml), leading to a final concentration of 100×10^3 cells per well in triplicates. Cells were incubated with the TLR7/8 agonists, diluted from 10 mM DMSO stocks in PBS, at 37° C. with 5% CO2 for 24 h for SEAP production. 50 μL SEAP containing cell supernatant from each well was added 150 μL QUANTI-Blue™ detection solution and was incubated at 37° C. for 3-6 h. The resulting response was quantified spectrophotometrically at 640 nm and was normalized to the signal from a blank sample (DMSO dilution) run in parallel.
Half maximal effective concentration (EC50) values were determined from sigmoidal 4PL fittings from the resulting dose-response curves in GraphPad Prism.

[4] = formulation F1, HEPES, drug/lipid ratio 0.10, 1 h
[5] = formulation F1, HEPES, drug/lipid ratio 0.10, 3 h
[6] = formulation F2, HEPES, drug/lipid ratio 0.10, 1 h
[7] = formulation F2, HEPES, drug/lipid ratio 0.10, 3 h
[8] = remote loaded in formulation F1, HEPES, drug/lipid ratio 0.1
[9] = remote loaded in formulation F2, HEPES, drug/lipid ratio 0.1
[10] = free small molecule, 10, 1, 0.1 μM, 24 h, two donors

SMILES | Remote loading efficiency 1 h (%) [1, 4] [%] | Remote loading efficiency 3 h (%) [1, 5] [%] | Remote loading efficiency 1 h (%) [1, 6] [%] | Remote loading efficiency 3 h (%) [1, 7] [%] | Expression of IL-12p40 upon stimulation of whole human blood (whole human blood [2]; [8]) | Expression of IL-12p40 upon stimulation of whole human blood (whole human blood [2]; [9]) | Expression of IL-6 upon stimulation of whole human blood (whole human blood [3]; [8]) | Expression of IL-6 upon stimulation of whole human blood (whole human blood [3]; [9]) | Expression of IL-12p40 upon stimulation of whole human blood (whole human blood [2]; [10]) | Expression of IL-6 upon stimulation of whole human blood (whole human blood [3]; [10]) | EC50 (RAW-Blue cells) [nM] | further results
CCOCc1nc2c(N)nc3ccccc3c2n1CCNC(=O)CN [MK087, 2-amino-N-(2-(4-amino-2-(ethoxymethyl)-1H-imidazo[4,5-c]quinolin-1-yl)ethyl)acetamide] | 72 | 73 | 52 | 60 | none of the small molecules Gardiquimod, MK087, MK088, and MK089 were capable of inducing expression of IL-12p40 | not capable of inducing expression of IL-12p40 | capable of inducing expression of IL-6 at 10 μM | capable of inducing expression of IL-6 at 10 μM; also recorded: not capable of inducing expression of IL-6 in donor 1 | – | – | – | –
CCOCc1nc2c(N)nc3ccccc3c2n1CCNC(=O)[C@H](C)N [MK088, (S)-2-amino-N-(2-(4-amino-2-(ethoxymethyl)-1H-imidazo[4,5-c]quinolin-1-yl)ethyl)propanamide] | 110 | 115 | 95 | 95 | none of the small molecules Gardiquimod, MK087, MK088, and MK089 were capable of inducing expression of IL-12p40 | capable of inducing expression of IL-12p40 in one donor at 10 μM | capable of inducing expression of IL-6 at 10 μM | capable of inducing expression of IL-6 at 10 μM; also recorded: not capable of inducing expression of IL-6 in donor 1 | induced expression of IL-12p40 at 10 μM in donor 2; also recorded: the most potent inducer of IL-12p40 | induced expression of IL-6 at 10 μM in donor 2 | – | –
CCOCc1nc2c(N)nc3ccccc3c2n1CCNC(=O)[C@@H](N)C(C)C [MK089, (S)-2-amino-N-(2-(4-amino-2-(ethoxymethyl)-1H-imidazo[4,5-c]quinolin-1-yl)ethyl)-3-methylbutanamide] | 122 | 128 | 100 | 104 | none of the small molecules Gardiquimod, MK087, MK088, and MK089 were capable of inducing expression of IL-12p40 | capable of inducing expression of IL-12p40 in one donor at 10 μM | No induction of IL-6 expression | capable of inducing expression of IL-6 at 10 μM; also recorded: capable of inducing expression of IL-6 in both donors | – | induced expression of IL-6 at 10 μM in donor 2 | – | –
CCOCc1nc2c(N)nc3ccccc3c2n1CCNC(=O)C(C)(C)N [MK090, 2-amino-N-(2-(4-amino-2-(ethoxymethyl)-1H-imidazo[4,5-c]quinolin-1-yl)ethyl)-2-methylpropanamide] | – | – | – | – | – | – | – | – | induced expression of IL-12p40 at 10 μM in donor 2 | induced expression of IL-6 at 10 μM in donor 2; also recorded: able to induce expression of IL-6 in both donors; also recorded: the most potent inducer of IL-6 | – | –
CCOCc1nc2c(N)nc3ccccc3c2n1CCNC(=O)[C@@H](N)CC(C)C [MK091, (S)-2-amino-N-(2-(4-amino-2-(ethoxymethyl)-1H-imidazo[4,5-c]quinolin-1-yl)ethyl)-4-methylpentanamide] | – | – | – | – | – | – | – | – | induced expression of IL-12p40 at 10 μM in donor 2 | induced expression of IL-6 at 10 μM in donor 2 | – | –
CCOCc1nc2c(N)nc3ccccc3c2n1CCNC(=O)[C@@H](N)CCSC [MK093, (S)-2-amino-N-(2-(4-amino-2-(ethoxymethyl)-1H-imidazo[4,5-c]quinolin-1-yl)ethyl)-4-(methylthio)butanamide] | – | – | – | – | – | – | – | – | induced expression of IL-12p40 at 10 μM in donor 2 | induced expression of IL-6 at 10 μM in donor 2 | – | –
CCCCc1nc2c(N)nc3ccccc3c2n1Cc1ccc(CNC(C)=O)cc1 [MK132, N-(4-((4-amino-2-butyl-1H-imidazo[4,5-c]quinolin-1-yl)methyl)benzyl)acetamide] | – | – | – | – | – | – | – | – | – | – | 120 | –
CCCCc1nc2c(N)nc3ccccc3c2n1Cc1ccc(CNC(=O)[C@@H](N)Cc2ccc(O)cc2)cc1 [MK141, (S)-2-amino-N-(4-((4-amino-2-butyl-1H-imidazo[4,5-c]quinolin-1-yl)methyl)benzyl)-3-(4-hydroxyphenyl)propanamide] | – | – | – | – | – | – | – | – | – | – | 130 | Remote loading efficiency 1 h (%) ([1]; formulation F3, drug/lipid ratio 0.10, 1 h, mean (SD), n = 2): 83.8 (3.0) %; Remote loading efficiency 3 h (%) ([1]; formulation F3, drug/lipid ratio 0.10, 3 h, mean (SD), n = 2): 81.2 (2.1) %
CCCCc1nc2c(N)nc3ccccc3c2n1Cc1ccc(CNC(=O)CC)cc1 [MK148, N-(4-((4-amino-2-butyl-1H-imidazo[4,5-c]quinolin-1-yl)methyl)benzyl)propionamide] | – | – | – | – | – | – | – | – | – | – | 50 | Potency in the RAW-Blue cell assay (RAW-Blue cells; compared with R848): greater potencies than R848
